According to patent US9533953B2, “Method of preparation of crystal forms of 4-(cyclopropylmethoxy)-n-(3,5-dichloro-1-oxidopyridyn-4-yl)-5-methoxypyridine-2-carboxamide and crystal forms thereof” (SANOFI, priority 2012, dated 2017):
Blank lines part the entries; values can stand above or below the compound they belong to.

Columns and labels:
Format in all cases: physicochemical
[1] = Behaviour under mechanical strain (mortar grinding, jet-milling); conditions: for effect of jet-milling on the crystalline form: DSC / XRPD
Procedure: Crystal Form A is of particular interest because of its behaviour under mechanical strain. The effect of 30 seconds of mortar grinding was evaluated. […] The behaviour of amorphous phase present in ground form A was also studied. No recrystallization of the amorphous phase was detected through sorption/desorption of water at 25° C. Nevertheless, maturation of ground samples in pure water for 6 days at room temperature led to partial recrystallization of the amorphous phase into form A.
A particle size close to 5 μm could be reached. The DSC analyses indicate that there is no modification of the crystalline structure before and after jet-milling of Form A.
A particle size close to 5 μm could be reached.

[2] = Water-Activity Isotherm (DVS), water sorption/desorption at 25° C.
Procedure: All experiments are performed on a DVS-1 automated gravimetric vapor sorption analyser (Surface Measurement Systems Ltd., London, UK). The DVS-1 measures the uptake and loss of vapor gravimetrically using a Cahn D200 recording ultra-microbalance with a mass resolution of ±0.1 μg. A controlled relative humidity is generated by mixing different proportions of dry and water saturated carrier gas streams (monitored by mass flow controllers). The temperature is maintained constant, ±0.1° C., by enclosing the entire system in a temperature-controlled incubator. A sample size between 4 and 10 mg is used. Prior to being exposed to any water vapor the samples are dried at 0% RH to remove any surface water present and establish a dry, baseline mass. Next, the samples are exposed to an increasing relative humidity raised by a step of 5% RH from 0% to 90% RH.

[3] = Physical stability of the crystal form on heating, humidity and storage (XRPD); conditions: for temperature of transformation into another crystal form: A into B, D into E, E into B, G desolvates into D; for desolvation behaviour: slight heating / upon heating
Procedure: High-resolution diagrams are recorded at ambient conditions on a PANalytical X'Pert Pro MPD powder diffractometer using the Bragg-Brentano (vertical 0-20 configuration) parafocusing geometry coupled with a X'Celerator detector. A sealed copper anode X-ray tube is used, running at 45 kV and 40 mA levels. An incident beam monochromator (Johansson type: a symmetrically cut curved germanium (111) crystal) produces pure Cu Kα1 radiation (λ[…]=1.54060 Å). A thin layer of the product is deposited on a single-crystal silicon wafer, cut out according to Si (510) crystallographic orientation that, by systematic extinction, impedes any Bragg reflection. In order to bring more crystallites into the diffraction position and thus reduce the influence of particle statistics on the measurements, a sample spinner is used. The spinner rotation speed is set at 1 revolution per second. The angular range extends from 2 to 50° in 2θ, with a 0.02° step size in 2θ. A variable counting time from 100 to 2500 seconds per step was used.
XRPD analyses are carried out on a Siemens-Bruker D5000 Matic powder diffractometer using the Bragg-Brentano (vertical θ-2θ configuration) parafocusing geometry. A thin layer of the product is deposited on a single-crystalline silicon wafer, cut out according to Si(510) crystallographic orientation that, by systematic extinction, impedes any Bragg reflection. A sealed cobalt anode X-ray tube running at 40 kV and 30 mA levels is used. Two lines are typically emitted: CoKα1 (λ=1.7890 Å) and CoKα2 (λ=1.7929 Å). […] The primary beam passes through a parallel plate collimator (0.2 mm Soller slits), then through a divergence slit (0.2 mm). A Braun 50 M multicanal linear detector completes the setup. It has a 10°-wide detection window in angle 2θ.

[4] = Thermo-Gravimetric Analysis (TGA)
Procedure: Analyses are carried out on a T.A. instruments TGAQ500 analyzer. Mass calibration is performed with 10 and 100 mg certified masses and the instrument is temperature-calibrated with alumel and nickel standards (Curie points of respectively 154° C. and 354° C.). Samples are exposed to a constant nitrogen stream of 60 mL/min and temperature ranges from 20° C. to 250° C. at a 5° C./min rate. The quantity of product lies between 2 and 5 mg. The powder is deposited in an open aluminum sample pan, which is itself placed in a platinum pan.

SMILES: COc1cnc(C(=O)Nc2c(Cl)c[n+]([O-])cc2Cl)cc1OCC1CC1 [Crystal Form A, 4-(cyclopropylmethoxy)-N-(3,5-dichloro-1-oxidopyridin-4-yl)-5-methoxypyridine-2-carboxamide]
amorphous phase after grinding (XRPD) ([1]; 30 seconds of mortar grinding): appearance of amorphous phase was detected | polymorphic transition after grinding (XRPD) ([1]; 30 seconds of mortar grinding): no observed polymorphic transition | particle size reached by jet-milling [1]: ~5 μm | effect of jet-milling on the crystalline form [1]: without any impact on the crystalline form | hygroscopicity ([2]; 25° C. isotherm): not hygroscopic | water uptake ([2]; 25° C., up to 90% of relative humidity (RH)): no significant water uptake | temperature of transformation into another crystal form ([3]; upon heating): above 100 °C | temperature beyond which thermal decomposition is observed [4]: > 190 °C | TGA weight loss ([4]; from room temperature up to 190° C.): no weight loss

SMILES: COc1cnc(C(=O)Nc2c(Cl)c[n+]([O-])cc2Cl)cc1OCC1CC1 [Crystal Form B, 4-(cyclopropylmethoxy)-N-(3,5-dichloro-1-oxidopyridin-4-yl)-5-methoxypyridine-2-carboxamide]
temperature beyond which thermal decomposition is observed [4]: > 190 °C

SMILES: COc1cnc(C(=O)Nc2c(Cl)c[n+]([O-])cc2Cl)cc1OCC1CC1 [Crystal Form C, 4-(cyclopropylmethoxy)-N-(3,5-dichloro-1-oxidopyridin-4-yl)-5-methoxypyridine-2-carboxamide]
behaviour on storage ([3]; 15 months of storage in ambient conditions): transformed into Crystal Form D and amorphous phase

SMILES: COc1cnc(C(=O)Nc2c(Cl)c[n+]([O-])cc2Cl)cc1OCC1CC1 [Crystal Form D, 4-(cyclopropylmethoxy)-N-(3,5-dichloro-1-oxidopyridin-4-yl)-5-methoxypyridine-2-carboxamide]
particle size reached by jet-milling [1]: ~5 μm | effect of jet-milling on the crystalline form [1]: without any impact on the crystalline form | total water gain ([2]; 25° C., at 90% RH): 8.7% | total water gain expressed as moles of water ([2]; 25° C., at 90% RH): 2 moles of water | loss of water, last desorption step ([2]; 25° C., between 70% and 0% RH, without hysteresis): 1.3% | water desorption, second desorption step ([2]; 25° C., between 75% and 70% RH): 6.4% | water uptake, second sorption step ([2]; 25° C., between 85% and 90% RH): 6.9% | temperature range in which the form is stable / physically unaltered ([3]; upon heating): up to 110 °C | temperature of transformation into another crystal form ([3]; upon heating): 110 °C | temperature beyond which thermal decomposition is observed [4]: > 205 °C | TGA weight loss ([4]; between 20 and 100° C.): 0.2% | TGA weight loss ([4]; between 100 and 205° C.): no weight loss

More lines, now with the values ahead:

stability under room conditions ([3]; room conditions): stable under room conditions | temperature of transformation into another crystal form ([3]; upon heating): 140 °C | TGA weight loss ([4]; between 100 and 170° C.): 0.8% | TGA weight loss ([4]; from room temperature to 100° C.): no weight loss
SMILES: COc1cnc(C(=O)Nc2c(Cl)c[n+]([O-])cc2Cl)cc1OCC1CC1 [Crystal Form E, 4-(cyclopropylmethoxy)-N-(3,5-dichloro-1-oxidopyridin-4-yl)-5-methoxypyridine-2-carboxamide]

temperature of transformation into another crystal form ([3]; upon heating): 70 °C
SMILES: COc1cnc(C(=O)Nc2c(Cl)c[n+]([O-])cc2Cl)cc1OCC1CC1 [Crystal Form G, 4-(cyclopropylmethoxy)-N-(3,5-dichloro-1-oxidopyridin-4-yl)-5-methoxypyridine-2-carboxamide]

desolvation behaviour [3]: desolvates easily into Crystal Form D
SMILES: COc1cnc(C(=O)Nc2c(Cl)c[n+]([O-])cc2Cl)cc1OCC1CC1 [Crystal Form H, 4-(cyclopropylmethoxy)-N-(3,5-dichloro-1-oxidopyridin-4-yl)-5-methoxypyridine-2-carboxamide]

desolvation behaviour [3]: desolvates easily into form D
SMILES: COc1cnc(C(=O)Nc2c(Cl)c[n+]([O-])cc2Cl)cc1OCC1CC1 [Crystal Form I, 4-(cyclopropylmethoxy)-N-(3,5-dichloro-1-oxidopyridin-4-yl)-5-methoxypyridine-2-carboxamide]
